The test system of assay [1] is S. cerevisiae strain ADΔΔ (native ScCYP51). Nature of the assay: MIC80 susceptibility, host strain ADΔΔ. In kind it is cell-based. The following applies: Saccharomyces cerevisiae, Table 2, SD pH 6.8, 48 h, 30 °C. The protocol:
(§1) The susceptibilities of S. cerevisiae strains to antifungal drugs were determined as minimum growth inhibitory concentration (MIC) values in 200 μL SD pH 6.8 [24]. Serial 2-fold dilutions of 100 μL of azole or control drugs in SD pH 6.8 were prepared in a 96-well microtiter plate. A portion of a 2 mL SD pH 6.8 overnight culture of the test strain was inoculated into 3 mL fresh SD pH 6.8 and incubated for 4 to 6 h at 30 °C to generate logarithmic-phase cells. These cells were then diluted with fresh SD pH 6.8 to OD600nm = 0.01 (3 × 10^4 CFU), and 100 μL of this cell suspension was added to microtiter plate wells. Cell growth after 48 h incubation at 30 °C with shaking at 200 rpm was determined at 600 nm using a BioTek™ Synergy™ 2 multi-Mode microplate reader controlled using Gen5™ Data Analysis Software version 3.16.10 (BioTek Instruments, Winooski, VT, USA). MIC80 values (80% growth inhibition in the presence of the test drug compared with the untreated control) for each yeast construct were determined as technical triplicates repeated three times for three separate clones.

Assay [2] concerns S. cerevisiae strain A (AfCyp51A-6×His, native ScCyp51 retained). Description: MIC80 susceptibility, strain A. The following applies: Saccharomyces cerevisiae, Table 2, SD pH 6.8, 48 h, 30 °C. In kind it is cell-based. The protocol:
as §1

In assay [3] the test system is S. cerevisiae strain AR (AfCyp51A-6×His, AfCprA2-6×His). Nature of the assay: MIC80 susceptibility, strain AR. The following applies: Saccharomyces cerevisiae; Table 2; strain AR; SD pH 6.8, 48 h, 30 °C; ± SD; read-out: MIC80. In kind it is cell-based, Saccharomyces cerevisiae. The protocol: as §1
Assay [4] has as its system S. cerevisiae strain ARE T289A (AfCyp51A-6×His T289A, AfCprA2, AfErg6-FLAG). Description: MIC80 susceptibility, strain T289A. The class given is cell-based, Saccharomyces cerevisiae. The following applies: for MIC80: ± SD. As to the method: as §1
Assay [5] concerns S. cerevisiae strain BR (AfCyp51B-6×His, AfCprA2-6×His). Description: MIC80 susceptibility, strain BR. The class given is cell-based. The following applies: Saccharomyces cerevisiae; Table 2; strain BR; SD pH 6.8, 48 h, 30 °C; ± SD; read-out: MIC80. As to the method: as §1
For assay [6], the system named is S. cerevisiae Y2300 ADΔΔ CYP51 (ScCYP51). Description: MIC80 susceptibility, strain Y2300 (Table S1). In kind it is cell-based, Saccharomyces cerevisiae. The following applies: Saccharomyces cerevisiae. As to the method:
as §1, with “clones. […]” for “clones.”
(§2) Table S1. Azole susceptibilities of ScCYP51 and ScCYP51 T322I expressed
(§3) Data for each strain was obtained for […] in three biological replicates.

Assay [7] relates to S. cerevisiae Y2305 ADΔΔ CYP51 T322I (ScCYP51 T322I). Description: MIC80 susceptibility, strain Y2305 (Table S1). The class given is cell-based, Saccharomyces cerevisiae. Conditions: Saccharomyces cerevisiae, read-out: MIC80. As to the method:
as §1, with “clones. […]” for “clones.”
as §2, §3

The next assay has as its target AfCYP51A-6×His (Aspergillus fumigatus, UniProt Q4WNT5). Nature of the assay: Type II binding of azole drugs (difference spectra). The following applies: for λpeak (type II difference spectrum) / λtrough (type II difference spectrum) / ΔAmax (type II binding) / Hill Number / Kd: AfCYP51A; for λpeak (type II difference spectrum) / λtrough (type II difference spectrum) / ΔAmax (type II binding) / Kd: 1 μM enzyme; for ΔAmax (type II binding) / Kd: Hill equation. The protocol: (§4) The concentration of AfCYP51A and AfCYP51B, purified using Ni-NTA affinity chromatography and used for the spectrophotometric type I and type II binding assays, was calculated using an extinction co-efficient of λ417nm = 117 mM^−1 cm^−1 applied to the absolute absorption spectrum of the preparations. In addition, the amount of “active” cytochrome P450 enzyme was determined using the carbon monoxide (CO) binding spectra of these preparations.
(§5) Type II binding difference spectra were obtained using 1 μM of affinity-purified CYP51 enzymes. VCZ, PCZ, VT-1161, DCZ, and MCF working solutions were prepared in DMSO, while FLC was prepared in Milli-Q water. Azole drugs were added to the sample cuvette, and corresponding amounts of DMSO or Milli-Q water were added to the reference cuvette. Drug binding curves were plotted using the difference spectrum peak and trough detected in the range of 410–425 nm. Dissociation constants (Kd) were determined by nonlinear regression (Levenberg–Marquardt algorithm) of the difference in absorbance between the peak and trough against the azole concentration using a rearrangement of the Morrison equation or the Hill equation [7]. GraphPad Prism 9.2.0 software was used to identify the best fit for the data.

Another assay concerns the target T1, AfCYP51B-6×His (Aspergillus fumigatus, UniProt E9QY26).
T1 sequence (E9QY26 1-524): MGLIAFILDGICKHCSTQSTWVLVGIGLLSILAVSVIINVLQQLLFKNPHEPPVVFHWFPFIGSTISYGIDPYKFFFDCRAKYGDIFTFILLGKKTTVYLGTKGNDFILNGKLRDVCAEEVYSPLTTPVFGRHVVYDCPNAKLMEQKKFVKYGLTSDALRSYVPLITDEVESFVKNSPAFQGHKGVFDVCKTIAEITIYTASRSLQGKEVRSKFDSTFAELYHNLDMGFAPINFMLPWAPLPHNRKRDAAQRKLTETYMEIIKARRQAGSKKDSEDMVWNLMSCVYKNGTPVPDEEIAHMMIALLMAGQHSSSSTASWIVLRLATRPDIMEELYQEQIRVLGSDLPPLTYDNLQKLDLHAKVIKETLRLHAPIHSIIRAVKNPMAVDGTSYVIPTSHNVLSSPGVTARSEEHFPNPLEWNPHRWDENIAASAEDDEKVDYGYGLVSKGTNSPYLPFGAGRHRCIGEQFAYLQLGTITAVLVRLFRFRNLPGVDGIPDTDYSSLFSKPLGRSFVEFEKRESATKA
The assay is described as above. The following applies: for λpeak (type II difference spectrum) / λtrough (type II difference spectrum) / ΔAmax (type II binding) / Kd: 1 μM enzyme; for ΔAmax (type II binding) / Kd: Hill equation; for Hill Number / Kd: type II binding. The protocol: as §4, §5

Where [8] appears, read: Saccharomyces cerevisiae, 48 h, pH 6.8, Table 2, strain T289A, SD pH 6.8, 48 h, 30 °C, read-out: MIC80.

Several values for one entry are separate records, joined by “and”; a condition that tells them apart may be missing. Equal values may be shown once. Read-outs that look alike come from different tables or passages of the source.

AfCYP51A-6×His, sequence (Q4WNT5 whole entry): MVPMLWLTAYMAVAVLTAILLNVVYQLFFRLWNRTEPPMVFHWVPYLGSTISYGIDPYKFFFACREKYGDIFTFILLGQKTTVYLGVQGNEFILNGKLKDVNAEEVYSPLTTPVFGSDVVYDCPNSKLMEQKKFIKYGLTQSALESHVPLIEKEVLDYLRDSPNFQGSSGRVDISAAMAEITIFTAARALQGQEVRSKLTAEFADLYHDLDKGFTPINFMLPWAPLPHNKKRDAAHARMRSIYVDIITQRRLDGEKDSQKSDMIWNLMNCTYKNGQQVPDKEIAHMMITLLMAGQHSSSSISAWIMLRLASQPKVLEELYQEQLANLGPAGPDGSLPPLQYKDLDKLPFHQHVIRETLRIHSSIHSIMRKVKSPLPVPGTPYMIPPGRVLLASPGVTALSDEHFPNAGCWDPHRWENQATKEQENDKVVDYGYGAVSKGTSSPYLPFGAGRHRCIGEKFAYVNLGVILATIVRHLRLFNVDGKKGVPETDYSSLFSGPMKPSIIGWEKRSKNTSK

One may read the MIC80 as the lowest concentration that inhibits either 80% of growth or 80% of the strains tested, depending on the study. Broadly, the Kd is a measure of binding affinity in units of concentration. Low values mean higher affinity, high ones lower affinity. On to `OC(Cn1cncn1)(Cn1cncn1)c1ccc(F)cc1F` [FLC, fluconazole], for which the MIC80 in assay [1] stood at 3.3 ± 0.2 µM; in [2], 3.8 ± 0.2 µM; in assay [3], 6.5 ± 0.7 µM; in assay [4] (setting [8]), 21.3 ± 2.7 µM; in assay [4] (Saccharomyces cerevisiae, Table 3, strain ARE T289A, read-out: MIC80), 12 ± 2 µM; in assay [5], 2.9 ± 0.4 µM. Also, the values for the MIC80 in [6] and in [7] were 6.2 ± 0.3 µM and 6.6 ± 0.2 µM, respectively. For the same compound, the “greater susceptibility (MIC80) of strain T289A compared with strain ARE” value in assay [4] was 11 fold. In assay [4] (higher), the “MIC80 of strain T289A relative to strain ADΔΔ” value is recorded as 7 fold. Besides, the “λpeak (type II difference spectrum)” value at AfCYP51A-6×His was determined as 422 nm; on AfCYP51B-6×His, 425 nm. The figures for the “λtrough (type II difference spectrum)” value on AfCYP51A-6×His and at AfCYP51B-6×His were 383 nm and 407 nm, respectively. The “ΔAmax (type II binding)” value was 0.10 at AfCYP51A-6×His and 0.09 on AfCYP51B-6×His. The “Hill Number” value at AfCYP51A-6×His (type II binding) is 0.72; on AfCYP51B-6×His it was 1.75. For the same compound, the dissociation constant Kd at AfCYP51A-6×His (type II binding) stood at 3.23 ± 1.13 µM; on AfCYP51B-6×His it was 1.43 ± 0.07 µM. In addition, the “Kd of AfCYP51A relative to AfCYP51B” value at AfCYP51A-6×His (type II binding) is 2.26 fold.
Consider `C[C@@H](c1ncncc1F)[C@](O)(Cn1cncn1)c1ccc(F)cc1F` [VCZ, voriconazole], for which the MIC80 in assay [1] was 0.06 µM; in assay [2] it was 0.08 ± 0.01 µM; in [3] it was 0.11 ± 0.02 µM; in assay [4] (setting [8]), < 0.12 µM; in assay [4] (Table 2, strain T289A, SD pH 6.8, 48 h, 30 °C), 0.11 ± 0.00 µM; in assay [5], 0.07 ± 0.01 µM. The values for the MIC80 in assay [6] and in assay [7] were 0.71 ± 0.03 µM and 0.8 ± 0.03 µM, respectively. Also, in [4], the “greater susceptibility (MIC80) of strain T289A compared with strain ARE” value worked out at 2.5 fold. In addition, the “λpeak (type II difference spectrum)” value on AfCYP51A-6×His is 422 nm; at AfCYP51B-6×His, 427 nm. The “λtrough (type II difference spectrum)” value stood at 392 nm on AfCYP51A-6×His and 410 nm on AfCYP51B-6×His. Moreover, the “ΔAmax (type II binding)” value was 0.05 on AfCYP51A-6×His and 0.03 on AfCYP51B-6×His. Also, the entries for the “Hill Number” value on AfCYP51A-6×His (type II binding) and at AfCYP51B-6×His were 1.10 and 1.12, respectively. Moreover, the Kd on AfCYP51A-6×His (type II binding) was 1.5 µM and 1.52 µM; at AfCYP51B-6×His, 0.8 ± 0.31 µM.

Values taken from publication PMC11678245, “The Molecular Basis of the Intrinsic and Acquired Resistance to Azole Antifungals in Aspergillus fumigatus” (Journal of Fungi, 2024).
